Data set [1] addresses Vascular endothelial growth factor receptor 3 (Homo sapiens, UniProt P35916). Briefly: Inhibition of VEGFR-3 (unknown origin).
Data set [2] has as its target Vascular endothelial growth factor receptor 1 (Homo sapiens, UniProt P17948). Briefly: Inhibition of VEGFR-1 (unknown origin).
Data set [3] concerns the target T1, Vascular endothelial growth factor receptor 2 (Homo sapiens, UniProt P35968).
Another data set deals with MHCC97H. Briefly: Antiproliferative activity against human MHCC97H cells assessed as reduction in cell viability incubated for 48 hrs by CCK-8 assay. The class given is functional, cell-based. A general note: Tetrazolium assays rely on reduction of a dye to a coloured formazan, in cell work by metabolically active cells.
The subject of another data set is L02. Nature of the data set: Cytotoxicity against human L02 cells assessed as cell growth inhibition measured after 48 hrs by CCK-8 assay. It counts as functional, cell-based. The settings on record: L02, 48 h.
The subject of a further data set is HUVEC. Nature of the data set: Antiproliferative activity against HUVEC cells assessed as reduction in cell viability incubated for 48 hrs by CCK-8 assay. It counts as functional, cell-based. The settings on record: Homo sapiens.
The test system of a further data set is HEK293. Nature of the data set: Cytotoxicity against HEK293 cells assessed as cell growth inhibition measured after 48 hrs by CCK-8 assay. The class given is functional, cell-based. The settings on record: Homo sapiens, HEK293, 48 h.
For data set [4], the system named is HepG2. Briefly: Cytotoxicity against human HepG2 cells assessed as cell growth inhibition. It counts as functional, cell-based.
The test system of data set [5] is HCT-116. Briefly: Cytotoxicity against human HCT-116 cells assessed as cell growth inhibition. It counts as functional, cell-based.
In data set [6] the test system is HCT-116. Nature of the data set: cells. The settings on record: Homo sapiens, HCT-116, 48 h.
Data set [7] deals with MCF7. Briefly: cells. Conditions: Homo sapiens, MCF7, 48 h.
Another data set relates to WISH. Briefly: Cytotoxicity against human WISH cells assessed as cell growth inhibition. It counts as functional, cell-based.
The subject of a further data set is B16. Briefly: Antiproliferative activity against mouse B16 cells assessed as reduction in cell viability incubated for 48 hrs by MTT assay. The class given is functional, cell-based. Conditions: B16, 48 h.
For data set [8], the system named is MCF7. Nature of the data set: Antiproliferative activity against human MCF7 cells assessed as reduction in cell viability measured after 72 hrs by MTT assay. The class given is functional, cell-based. Conditions: MCF7, 72 h.
Data set [9] relates to HepG2. Briefly: Antiproliferative activity against human HepG2 cells assessed as reduction in cell viability measured after 72 hrs by MTT assay. The class given is functional, cell-based. The settings on record: HepG2, 72 h.
A further data set concerns the target Angiopoietin-1 receptor (Homo sapiens, UniProt Q02763). Nature of the data set: Inhibition of TIE-2 (unknown origin).
The target in the next data set is Ephrin type-B receptor 4 (Homo sapiens, UniProt P54760).
Sequence of Ephrin type-B receptor 4 (P54760 whole entry): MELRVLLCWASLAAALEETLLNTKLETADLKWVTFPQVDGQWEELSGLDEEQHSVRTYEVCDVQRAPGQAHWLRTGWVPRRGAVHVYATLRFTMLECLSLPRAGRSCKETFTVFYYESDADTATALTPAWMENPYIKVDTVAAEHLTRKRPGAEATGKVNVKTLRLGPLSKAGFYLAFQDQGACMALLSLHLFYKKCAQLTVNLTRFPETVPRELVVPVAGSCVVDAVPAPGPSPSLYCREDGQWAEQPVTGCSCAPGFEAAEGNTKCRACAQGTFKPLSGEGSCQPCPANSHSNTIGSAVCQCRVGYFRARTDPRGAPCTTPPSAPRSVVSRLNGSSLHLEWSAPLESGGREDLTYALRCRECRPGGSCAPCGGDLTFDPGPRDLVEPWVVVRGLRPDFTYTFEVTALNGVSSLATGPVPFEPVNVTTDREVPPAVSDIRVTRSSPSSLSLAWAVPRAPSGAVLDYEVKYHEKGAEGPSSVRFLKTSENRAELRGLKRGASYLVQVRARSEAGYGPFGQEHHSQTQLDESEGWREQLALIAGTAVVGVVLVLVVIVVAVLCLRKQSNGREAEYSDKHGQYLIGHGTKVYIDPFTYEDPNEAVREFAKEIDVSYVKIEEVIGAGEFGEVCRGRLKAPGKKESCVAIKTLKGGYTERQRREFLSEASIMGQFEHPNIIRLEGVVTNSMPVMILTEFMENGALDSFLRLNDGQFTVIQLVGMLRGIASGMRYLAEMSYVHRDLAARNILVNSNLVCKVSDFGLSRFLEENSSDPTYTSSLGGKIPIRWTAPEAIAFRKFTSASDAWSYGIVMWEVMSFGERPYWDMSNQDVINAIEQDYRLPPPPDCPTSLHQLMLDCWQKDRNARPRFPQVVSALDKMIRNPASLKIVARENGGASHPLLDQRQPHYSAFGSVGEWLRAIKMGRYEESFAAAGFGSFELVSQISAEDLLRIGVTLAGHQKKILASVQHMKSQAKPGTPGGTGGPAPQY
Data set [10] deals with Platelet-derived growth factor receptor beta (Homo sapiens, UniProt P09619). Nature of the data set: Inhibition of human recombinant PDGFRbeta using poly (Glu, Tyr)4:1 as substrate measured after 60 mins by ELISA. (In an ELISA, binding on a coated surface is turned into a signal by an enzyme label.)
Sequence of Platelet-derived growth factor receptor beta (P09619 whole entry): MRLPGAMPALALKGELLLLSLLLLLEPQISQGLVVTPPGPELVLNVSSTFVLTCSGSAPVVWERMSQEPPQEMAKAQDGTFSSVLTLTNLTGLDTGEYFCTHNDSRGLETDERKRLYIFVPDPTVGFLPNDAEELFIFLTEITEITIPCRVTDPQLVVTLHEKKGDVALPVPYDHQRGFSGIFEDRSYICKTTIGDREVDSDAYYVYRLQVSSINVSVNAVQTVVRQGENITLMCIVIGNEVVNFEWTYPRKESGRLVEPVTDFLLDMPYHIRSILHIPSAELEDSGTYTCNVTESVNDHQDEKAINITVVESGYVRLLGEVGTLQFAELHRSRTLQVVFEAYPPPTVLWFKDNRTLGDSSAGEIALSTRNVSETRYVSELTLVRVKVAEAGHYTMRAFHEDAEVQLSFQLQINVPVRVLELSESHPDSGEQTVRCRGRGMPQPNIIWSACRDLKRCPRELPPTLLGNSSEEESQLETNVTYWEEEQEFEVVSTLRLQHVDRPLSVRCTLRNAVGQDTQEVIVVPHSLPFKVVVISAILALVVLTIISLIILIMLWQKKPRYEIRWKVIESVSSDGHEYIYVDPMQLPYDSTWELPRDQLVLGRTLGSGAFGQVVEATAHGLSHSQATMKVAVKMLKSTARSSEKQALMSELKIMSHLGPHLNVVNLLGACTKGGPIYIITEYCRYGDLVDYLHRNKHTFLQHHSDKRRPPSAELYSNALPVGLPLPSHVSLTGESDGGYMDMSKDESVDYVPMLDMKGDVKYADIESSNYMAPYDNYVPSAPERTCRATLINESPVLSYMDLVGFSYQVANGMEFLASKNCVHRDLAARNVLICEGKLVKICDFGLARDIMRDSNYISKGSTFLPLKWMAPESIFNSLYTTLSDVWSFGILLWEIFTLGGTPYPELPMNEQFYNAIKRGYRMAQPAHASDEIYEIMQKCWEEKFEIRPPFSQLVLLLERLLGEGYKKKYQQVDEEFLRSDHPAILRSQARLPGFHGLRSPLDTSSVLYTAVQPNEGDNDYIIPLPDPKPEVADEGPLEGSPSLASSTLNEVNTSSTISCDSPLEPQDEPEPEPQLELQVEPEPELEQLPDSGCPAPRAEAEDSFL
Data set [11] concerns MCF7. Briefly: cells. Conditions: Homo sapiens, MCF7, 48 h. This is another data set of the same source.
The test system of a further data set is NCI-H460. Briefly: cells. The settings on record: Homo sapiens, NCI-H460, 48 h.
A further data set relates to A549. Briefly: cells. The settings on record: Homo sapiens, A549, 48 h.
The subject of a further data set is Macrophage. Briefly: cells. The settings on record: Homo sapiens, 48 h.
The test system of data set [12] is MCF7. Nature of the data set: Induction of cell cycle arrest in human MCF7 cells assessed as reduction in accumulation of cells in G2/M phase at 10 uM incubated for 24 hrs by PI staining based flow cytometry analysis relative to control. The class given is functional. Also on record: scale not given: the % may be the effect or the level left.
Data set [13] relates to MCF7. Briefly: Cytotoxicity against human MCF7 cells assessed as reduction in cell growth incubated for 24 hrs by MTT assay. The class given is functional, cell-based. Conditions: MCF7, 24 h.
The test system of data set [14] is HCT-116. Nature of the data set: Antiproliferative activity against human HCT-116 cells assessed as reduction in cell viability measured after 48 hrs by MTT assay. The class given is functional, cell-based. Conditions: HCT-116, 48 h.
For data set [15], the system named is MCF7. Briefly: Antiproliferative activity against human MCF7 cells assessed as reduction in cell viability measured after 48 hrs by MTT assay. The settings on record: MCF7, 48 h. The class given is functional, cell-based.
The test system of data set [16] is MDA-MB-231. Nature of the data set: Cytotoxicity against human MDA-MB-231 cells assessed as reduction in cell viability incubated for 48 hrs by MTT assay. The class given is functional, cell-based. Conditions: MDA-MB-231, 48 h.
Data set [17] has as its system MDA-MB-231. Nature of the data set: Cytotoxicity against human MDA-MB-231 cells assessed as reduction in cell viability incubated for 24 hrs by MTT assay. It counts as functional, cell-based. Conditions: MDA-MB-231, 24 h.
Data set [18] has as its target T1, Vascular endothelial growth factor receptor 2. This is another data set of the same source.
Data set [19] is described as follows: Antiproliferative activity against human WI-38 cells assessed as reduction in cell growth measured after 24 hrs by MTT assay. The class given is toxicity, cell-based.

Each structure is given as a SMILES string. ≈ marks a conversion by molar mass, not a printed value.

T1 sequence (P35968 whole entry): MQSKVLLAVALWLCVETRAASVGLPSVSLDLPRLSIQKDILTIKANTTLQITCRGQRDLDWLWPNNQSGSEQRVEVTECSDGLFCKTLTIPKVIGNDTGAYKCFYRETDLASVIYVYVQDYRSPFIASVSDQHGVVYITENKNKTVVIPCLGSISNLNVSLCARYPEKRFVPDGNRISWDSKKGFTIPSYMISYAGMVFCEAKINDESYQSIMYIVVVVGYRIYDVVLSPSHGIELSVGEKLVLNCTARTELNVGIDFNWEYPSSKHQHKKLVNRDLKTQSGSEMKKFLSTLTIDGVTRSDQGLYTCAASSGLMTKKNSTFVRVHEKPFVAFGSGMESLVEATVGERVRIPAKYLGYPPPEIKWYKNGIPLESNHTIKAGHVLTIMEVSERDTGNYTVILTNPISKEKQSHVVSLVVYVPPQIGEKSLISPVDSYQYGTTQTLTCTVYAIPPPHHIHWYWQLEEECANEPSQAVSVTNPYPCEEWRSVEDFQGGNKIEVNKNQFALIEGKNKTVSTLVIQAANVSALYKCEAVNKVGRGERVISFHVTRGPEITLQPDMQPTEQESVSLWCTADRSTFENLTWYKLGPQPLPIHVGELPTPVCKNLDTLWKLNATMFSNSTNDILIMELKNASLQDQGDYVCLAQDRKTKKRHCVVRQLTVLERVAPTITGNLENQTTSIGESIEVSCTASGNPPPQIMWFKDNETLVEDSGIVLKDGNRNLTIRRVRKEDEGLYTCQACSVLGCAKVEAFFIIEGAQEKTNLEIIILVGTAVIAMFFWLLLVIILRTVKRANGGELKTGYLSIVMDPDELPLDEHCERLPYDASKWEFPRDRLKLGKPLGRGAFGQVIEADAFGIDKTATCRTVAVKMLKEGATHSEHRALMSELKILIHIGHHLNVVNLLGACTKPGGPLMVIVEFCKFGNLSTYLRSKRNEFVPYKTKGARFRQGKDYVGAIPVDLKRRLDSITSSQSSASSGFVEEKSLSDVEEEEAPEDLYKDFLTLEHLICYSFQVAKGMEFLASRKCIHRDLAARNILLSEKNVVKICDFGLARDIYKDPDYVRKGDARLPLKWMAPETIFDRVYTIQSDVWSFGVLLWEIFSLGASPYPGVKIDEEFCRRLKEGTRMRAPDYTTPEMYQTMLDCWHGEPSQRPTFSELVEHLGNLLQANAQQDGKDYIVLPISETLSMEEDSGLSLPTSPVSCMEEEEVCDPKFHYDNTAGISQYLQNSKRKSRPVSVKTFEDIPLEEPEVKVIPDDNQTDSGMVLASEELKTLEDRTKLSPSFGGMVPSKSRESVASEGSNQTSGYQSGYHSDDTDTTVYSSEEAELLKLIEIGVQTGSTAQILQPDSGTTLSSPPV
Sequence of Vascular endothelial growth factor receptor 3 (P35916 whole entry): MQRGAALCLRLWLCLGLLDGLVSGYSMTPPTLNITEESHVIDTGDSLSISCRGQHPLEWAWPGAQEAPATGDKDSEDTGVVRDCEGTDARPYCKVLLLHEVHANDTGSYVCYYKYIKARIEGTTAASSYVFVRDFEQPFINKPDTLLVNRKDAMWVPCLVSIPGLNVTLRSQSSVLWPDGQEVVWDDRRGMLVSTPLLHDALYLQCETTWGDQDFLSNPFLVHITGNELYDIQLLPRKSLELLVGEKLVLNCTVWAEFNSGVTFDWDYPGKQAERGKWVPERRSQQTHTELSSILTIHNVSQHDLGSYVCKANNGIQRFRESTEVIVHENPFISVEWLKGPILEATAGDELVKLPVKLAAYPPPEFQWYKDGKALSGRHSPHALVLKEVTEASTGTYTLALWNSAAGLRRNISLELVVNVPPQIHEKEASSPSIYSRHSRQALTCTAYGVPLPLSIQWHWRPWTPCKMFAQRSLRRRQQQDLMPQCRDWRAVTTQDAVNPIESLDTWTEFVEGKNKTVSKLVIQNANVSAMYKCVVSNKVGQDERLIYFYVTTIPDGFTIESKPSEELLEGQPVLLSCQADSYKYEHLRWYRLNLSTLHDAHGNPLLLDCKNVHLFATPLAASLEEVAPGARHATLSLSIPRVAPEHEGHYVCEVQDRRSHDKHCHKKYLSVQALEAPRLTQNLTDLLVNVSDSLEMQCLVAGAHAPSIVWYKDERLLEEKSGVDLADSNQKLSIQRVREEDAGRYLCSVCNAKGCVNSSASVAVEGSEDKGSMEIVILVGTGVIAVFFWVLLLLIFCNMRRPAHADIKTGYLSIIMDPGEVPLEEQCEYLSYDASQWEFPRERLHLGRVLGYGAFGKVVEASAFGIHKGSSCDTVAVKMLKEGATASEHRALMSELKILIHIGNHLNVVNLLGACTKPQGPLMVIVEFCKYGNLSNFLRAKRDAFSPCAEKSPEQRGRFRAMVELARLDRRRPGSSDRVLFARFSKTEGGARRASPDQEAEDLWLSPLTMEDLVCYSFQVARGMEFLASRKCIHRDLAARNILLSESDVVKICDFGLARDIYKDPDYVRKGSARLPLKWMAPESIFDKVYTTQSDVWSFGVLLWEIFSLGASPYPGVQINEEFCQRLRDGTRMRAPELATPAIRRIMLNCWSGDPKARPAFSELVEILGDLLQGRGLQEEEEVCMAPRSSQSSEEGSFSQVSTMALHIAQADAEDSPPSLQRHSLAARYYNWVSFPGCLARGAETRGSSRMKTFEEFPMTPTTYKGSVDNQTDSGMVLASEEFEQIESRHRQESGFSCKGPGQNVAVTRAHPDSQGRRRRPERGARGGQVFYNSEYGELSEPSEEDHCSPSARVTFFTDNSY

As usually defined, the IC50 is the midpoint of a concentration-inhibition curve. Consider `CCCNC(=O)Nc1ccc(Nc2ncnc3cc(OC)c(OC)cc23)cc1Cl`, for which the results for the IC50 in data set [1], in [2] and in [3] were 0.125 µM, 0.17 µM and 0.16 µM, respectively.

Consider `COc1cc2ncnc(Oc3ccc(NC(=O)C4(C(=O)Nc5ccc(F)cc5)CC4)cc3F)c2c2c1OCCO2`, for which the half-maximal inhibitory concentration (IC50) in the data set on MHCC97H is 58.6 mg/L (≈ 107 µM); in the data set with L02, 12.6 mg/L (≈ 23 µM); in the data set with HUVEC it was 3.7 mg/L (≈ 6.75 µM); with HEK293 it was 15.1 mg/L (≈ 27.5 µM).

On to `COc1cc2nccc(Oc3ccc(NC(=O)C4(C(=O)Nc5ccc(F)cc5)CC4)cc3)c2cc1OC` [CABOZANTINIB], for which the IC50 stood at 25 mg/L (≈ 49.8 µM) with MHCC97H and 2.7 mg/L (≈ 5.38 µM) in the data set on HUVEC.

As for `CNC(=O)c1cc(Oc2ccc(NC(=O)Nc3ccc(Cl)c(C(F)(F)F)c3)cc2)ccn1` [SORAFENIB], the IC50 in the data set on HepG2 [4] was 19.3 µM; with HCT-116 [5] it was 6.82 µM; in the data set with HCT-116 [6] it was 10.6 µM; in the data set on MCF7 [7] it was 17.9 µM; in the data set with WISH, 17.5 µM; with B16, 9.29 µM.

In the case of `COc1cc2ncnc(Oc3cccc(NC(=S)Nc4ccc(Cl)c(C(F)(F)F)c4)c3)c2cc1OC`, the IC50 was 9.13 µM with HCT-116 [6], 17.7 µM in the data set on MCF7 [7] and 6.11 µM with B16.

As for `COCCOc1cc2ncnc(Oc3ccc(NC(=O)C4(C(=O)Nc5ccc(F)cc5)CC4)cc3F)c2c2c1OCCO2`, the IC50 with MHCC97H turned out to be 15.1 mg/L (≈ 25.5 µM); with L02, 12.2 mg/L (≈ 20.6 µM); in the data set with HUVEC it was 12.6 mg/L (≈ 21.3 µM); in the data set with HEK293, 11.9 mg/L (≈ 20.1 µM).

As for `CCn1c(SCCCN2C(=O)c3ccccc3C2=O)nc2cc3ccccc3cc2c1=O`, the IC50 in the data set on MCF7 [8] came out at 9.4 µM; in the data set with HepG2 [9], 26 µM.

Regarding `O=C(Nc1ccc(-c2ccc3c(=O)[nH]cnc3c2)cc1)Nc1ccc(F)c(F)c1`, the values for the IC50 (on Angiopoietin-1 receptor; on Ephrin type-B receptor 4; in [10]) were 8.87 µM, 3.21 µM and 98.5 µM, respectively.

Take `COc1ccc(Cc2nnc(COc3ncnc4ccccc34)o2)cc1OC`: the IC50 with MCF7 [11] was determined as 0.35 µM; in the data set with NCI-H460, 0.39 µM; in the data set with A549, 0.58 µM; with Macrophage, 288 µM.

On to `NS(=O)(=O)c1ccc(-n2c(SCC(=O)N/N=C/c3ccc(Cl)cc3Cl)nc3cc4ccccc4cc3c2=O)cc1`, for which the Activity in the data set with MCF7 [12] amounted to 24.17%. Further, the IC50 with MCF7 [13] turned out to be 0.1 µM; in [3] it was 0.64 µM.

Take `O=C(CSc1nc2ccc(Cl)cc2c(=O)n1-c1ccccc1)N/N=C/c1cccc(F)c1`: the half-inhibitory concentration (IC50) with HCT-116 [14] came to 1.58 µM; in the data set with MCF7 [15], 9.63 µM.

Consider `COc1cc2nccc(Oc3ccc(NC(=O)Nc4cc(C)on4)c(Cl)c3)c2cc1OC` [TIVOZANIB], for which the figures for the IC50 in the data set with NCI-H460, in the data set with A549 and in the data set with Macrophage were 0.39 µM, 0.62 µM and 227 µM, respectively.

Take `COc1cccc(CNC(=O)CSc2nc3ccccc3c(=O)n2-c2ccc(S(N)(=O)=O)cc2)c1OC`: the half-maximal inhibitory concentration (IC50) was found to be 0.51 µM in the data set on MDA-MB-231 [16], 0.34 µM in the data set on MDA-MB-231 [17] and 0.247 µM in [18].

As for `CCn1c(SCC(=O)NNC(=O)c2ccccc2)nc2ccc([N+](=O)[O-])cc2c1=O`, in data set [19], the IC50 at 24 h stood at 146 mg/L (≈ 341 µM).

Source of the values: ChEMBL document CHEMBL5625175, “Quinazoline-based VEGFR-2 inhibitors as potential anti-angiogenic agents: A contemporary perspective of SAR and molecular docking studies” (Eur J Med Chem, 2023).
